Measured values as given in patent US6455541B1, “Suppression, by 5-lipoxygenase inhibitors, of bone resorption” (Board of Regents, The University of Texas System, priority 1994, dated 2002).
Several values for one entry are separate records, joined by “and”; a condition that tells them apart may be missing. Identical values can stand only once.

Key:
neonatal mouse calvariae = assay: Neonatal mouse (murine) calvarial assay, 45Ca release; type: cell-based; settings: for 45Ca release, Factor alone (Table II): IL-1 5 × 10^−10M, TNF 2 × 10^−10M, Lymphotoxin 5 × 10^−9M, PTH 4 ng/ml
Procedure: The assay was performed as described by Gowen et al. (1983). Timed pregnant mice were injected with ^45Ca 2 days before parturition. Half-calvaria were removed from the 1-2-day-old pups and preincubated for 24 h in BGJb medium at 37° C. in a humidified atmosphere of 5% CO2 before transfer to fresh media with or without test substances for 48 h. The bones were incubated for a further 72 h and media and bones collected. Bone-resorbing activity was expressed as the percentage of the total ^45Ca released into the medium.

isolated rat osteoclasts = assay: Disaggregated rat osteoclast pit formation assay on sperm whale dentine; type: cell-based
Procedure: Quantitation of the effects of isolated osteoclasts on calcified matrices was determined using minor modifications of the disaggregated osteoclast resorption assay as described by Boyde et al. (1984). Sperm whale dentine (0.25×7×7 mm) was prepared using a Buehler low speed diamond saw (Buehler, Lake Bluff, Ill.) followed by sonication (15 min) in several changes of distilled water. Slices were sterilized using ultraviolet light.
Neonatal Sprague-Dawley rats (2-3 days) were sacrificed by decapitation, the femurs and tibias were removed, scraped free of adherent tissue, and trimmed free of the epiphyses. The bones from one litter were combined and quickly minced using a scalpel blade in 2 ml of 199 medium and then vigorously mixed with a pipette in an 8-ml tube, allowed to settle for 10 s, and then 100 μl of the suspension was added to each well for a total of 16 wells in a 48-well microtiter plate containing sperm whale dentine (approximately four neonates are used per 16 wells). The cells were incubated at 37° C. for 30 min at which time the dentine was removed, washed in media, and placed in a fresh 48-well plate containing 250 μl of test medium.
Osteoclasts were stained for TRAP and counted and then pit numbers were counted following toluidine blue (0.1% w/v) staining by light microscopy. The plan area of matrix resorbed was quantitated using a computer-assisted morphometric program on a Bioquant System IV analysis system (R & M Biometrics, Nashville, Tenn.).
Quantitation of the effects of isolated neonatal rat osteoclasts on calcified matrices was determined using minor modifications of the disaggregated osteoclast resorption assay as described by Boyde et al (1984). Briefly rat osteoclasts isolated as described by Chambers et al. (1983) were dispersed on prewetted (AMEM plus 5% FBS) slices of sperm whale dentine. Cultures were performed in 48 well-microtiter plates in humidified air (10% CO2) at 37° C. in αMEM medium (one slice/well in 200 μl medium). Numbers of osteoclasts and resorption lacunae were quantitated as described above for the avian osteoclasts.

[1] = system: isolated avian osteoclasts; assay: TRAP activity in isolated avian osteoclasts; type: cell-based, Gallus domesticus; settings: 10^−8 M stimulates suboptimally
Procedure: Avian osteoclasts were isolated from medullary bone of laying White Leghorn hens Gallus domesticus (Pioneer Animal Supply, Kingswheel, Ohio) as described previously by Zambonin-Zallone and Teti (1981). In brief, bone marrow suspensions from the medullary bone of femora were filtered through Nytex cloth (110 μm, t'etko, Elmsford, N.Y.), centrifuged for 5 min at 1200 rpm, and the cell pellet resuspended in 0.2% NaCl for 3 min to lyse erythrocytes. After layering the cells on 100% fetal bovine serum for 1 h, sedimented cells were further filtered through Nytex filters (55 μm). Cells were harvested, resuspended in α-minimal Eagle's medium (GIBCO) containing 10 fetal bovine serum, with penicillin (100 units/ml), streptomycin (100 μg/ml), and Ara-C, to inhibit proliferation of nonosteoclastic cells. Cells were plated in 24- or 48-well plates (Costar, Cambridge, Mass.) at 1×10^4 cells/well and incubated at 37° C. in 10% CO2 humidified air for 48 h, after which they were washed to remove nonadherent cells. When matured osteoclasts were observed experiments were begun and terminated within 48 h.
Osteoclast TRAP activity was measured using fluorescence spectroscopy as described by Chambers et al. (1987) with minor modifications. In brief, media from osteoclast cultures were harvested and stored at −70° C. until ready for assay.
The cells were washed with phosphate-buffered saline and harvested in 0.5 ml of Triton X-100 (0.05%, w/v). Aliquots of media or lysate 30 μl) were incubated with 170 μl of 2 mM methylumbelliferyl phosphate, pH 5.0, in 0.48 M acetate buffer (0.48 M sodium acetate, 0.48 M acetic acid, pH 5.0) and 30 mM tartaric acid. Samples were incubated for 30 min at 37° C. and the reaction terminated with 100 μl of stop solution containing 50 mM glycine, 50 mM EDTA, pH 10.4. Fluorescence was measured at excitation 360 nm and emission 448 nm using a fluorimeter (Fluoroskan, Flow Instruments). Enzyme activity was expressed as micromoles of methylumbelliferyl phosphate hydrolyzed/min/μg of protein and the protein content measured by the technique of Lowry et al. (1951).

C433 cells = assay: Production of osteoclast-stimulating activity by C433 cells (conditioned medium bioassayed for TRAP in avian osteoclasts); type: cell-based, human; settings: flurbiprofen 10^−5 M; indomethacin 10^−6 M; nordihydroguaiaretic acid 10^−6, 10^−5 or 10^−4 M
Procedure: FIG. 3A, FIG. 3B, FIG. 3C and FIG. 3D. Chemical characterization of activity. FIG. 3A. C433-conditioned medium was treated with ultraviolet-light (UV) for 24 h or placed in a boiling water bath (100° C.) for 15 min and bioassayed. FIG. 3B. amino peptidase M (A), carboxypeptidase (C), or Pronase-CB (P) were incubated in the presence of C433-conditioned medium for 12 h at 37° C. FIG. 3C. […] The resultant conditioned medium was bioassayed for activity. FIG. 3D. […] Conditioned medium was bioassayed for induction of TRAP activity in avian osteoclasts.
C433 cells were grown in 10% fetal bovine serum (Whittaker, Walkersville, Md.) 50% RPMI, 50% McCoys (Flow, McLean, Va.) until a density of 10^4 cells/ml was obtained, at which time the cells were harvested, washed, and placed in serum-free DMEM plus 10^−8 M, 1,25-(OH)2D3 for 48 h before harvest of conditioned medium. […] This conditioned medium was applied to a prewetted C18 Sep-Pak (Millipore, Waters, Milford, Mass.), and bound material was extracted using ethyl acetate. This material was dried under nitrogen and resuspended in water, it acetic acid and analyzed by high pressure measure liquid chromatography (HPLC) (Waters, Milford, Mass.) applied to a C8 semipreparative 25 cm×10 mm reverse phase column (Keystone Scientific, Inc., Bellefonte, Pa.) at 2 ml/min. The gradient was 0-100% methanol, 1% acetic acid over 60 min with 6-ml fractions collected. The fractions were dried under nitrogen, and those fractions to be assayed for osteoclast stimulating activity were stabilized with 20 μl of 10% bovine serum albumin. Fractions to be used for gas chromatography-mass spectrometric analysis were prepared for derivatization.

[2] = 1,25D3 10^−10M + MK886 2.5 μg/ml
[3] = IL-1 1 × 10^−10M + MK886 2.5 μg/ml

CC(C)c1ccc2c(c1)c(SC(C)(C)C)c(CC(C)(C)C(=O)O)n2Cc1ccc(Cl)cc1 [MK886]
inhibition of 1,25(OH)2 vitamin D3-induced bone resorption (in words) (neonatal mouse calvariae; 1,25(OH)2 vitamin D3 as factor): significantly inhibited
45Ca release, factor + MK886 (neonatal mouse calvariae; [2]): 32.1%
% Inhibition (neonatal mouse calvariae; [2]): 23.4%
% Inhibition (neonatal mouse calvariae; AAY4 LPS 25 μg/ml + MK886): 20.9%
Ca^45 Release, LPS + MK886 (neonatal mouse calvariae; AAY4 LPS 25 μg/ml + MK886 (concentration not given)): 22.6%
inhibition of LPS-induced bone resorption (in words) (neonatal mouse calvariae; AaY4 LPS and/or WR14 LPS): only mildly inhibited
45Ca release, factor + MK886 (neonatal mouse calvariae; [3]): 34.9%
% Inhibition (neonatal mouse calvariae; [3]): 23.0%
inhibition of IL-1-induced bone resorption (in words) (neonatal mouse calvariae; IL-1 as factor): significant inhibition of Interleukin-1 induced bone resorption was not noted
45Ca release, MK886 alone (neonatal mouse calvariae; MK886 2.5 μg/ml, no factor): 9.6% and 14.2%
% Inhibition (neonatal mouse calvariae; WR14 LPS 50 ng/ml + MK886): 8.2%
Ca^45 Release, LPS + MK886 (neonatal mouse calvariae; WR14 LPS 50 ng/ml + MK886 (concentration not given)): 32.8%
inhibition of PTH and PTHrP-induced bone resorption (isolated rat osteoclasts; NDGA 10^−6M, MK886 1 μg/ml, ZM 230,487 10 ng/ml, 20 hours): inhibition of the bone resorption was seen
order of inhibitory effectiveness (isolated rat osteoclasts; PTH and PTHrP-induced bone resorption, NDGA 10^−6M, MK886 1 μg/ml, ZM 230,487 10 ng/ml): ZM230487>MK886>NDGA

IL-1: interleukin-1, bone resorbing factor
45Ca release, factor alone (Table IV) (neonatal mouse calvariae; 1,25D3 10^−10M, IL-1 1 × 10^−10M): 38.9%
45Ca release, Factor alone (Table II) (neonatal mouse calvariae; 1,25D3 10^−10M): 27.7% and 31.2%
45Ca release, Factor alone (Table VII) (neonatal mouse calvariae; IL-1β 5 × 10^−10M, TNF 5 × 10^−10M, LPS WR14 50 ng/ml): 32.0%

CCCCC/C=C\C[C@@H](O)/C=C/C=C/C=C\[C@@H](O)CCCC(=O)O [LTB4]
stimulation of bone resorption in neonatal mouse calvariae (in words) (neonatal mouse calvariae): found to stimulate osteoclastic bone resorption
concentration showing statistically significant resorption stimulation (neonatal mouse calvariae; dose response, FIG. 8C): 10^−8 to 10^−6 M

CCCCC/C=C\C\C=C/C=C/C=C/[C@@H](SC[C@H](N)C(=O)O)[C@@H](O)CCCC(=O)O [LTE4, leukotriene E4]
stimulation of pit formation (isolated rat osteoclasts; 10^−10 M): stimulated

CCCCC/C=C\C\C=C/C=C/C=C/[C@@H](SC[C@H](N)C(=O)NCC(=O)O)[C@@H](O)CCCC(=O)O [LTD4, leukotriene D4]
concentration of optimal stimulation of TRAP activity [1]: 10^−10 M

COc1ccc2c(c1)c(CC(=O)O)c(C)n2C(=O)c1ccc(Cl)cc1 [indomethacin]
effect on production of C433 activity (C433 cells): no significant effects

CC(C(=O)O)c1ccc(-c2ccccc2)c(F)c1 (centres unmarked) [Flurbiprofen, flurbiprofen]
effect on production of C433 activity (C433 cells): no significant effects

B1: PTH: parathyroid hormone (protein, UniProt P01270 32-115, looked up)
Parathyroid hormone: SVSEIQLMHNLGKHLNSMERVEWLRKKLQDVHNFVALGAPLAPRDAGSQRPRKKEDNVLVESHEKSLGEADKADVNVLTKAKSQ
modifications: Parathyroid hormone
45Ca release, Factor alone (Table II) (neonatal mouse calvariae; 1,25D3 10^−10M): 37.0% and 39.9% and 29.8%
% Total Calcium Released, PTH alone (Table VI) (neonatal mouse calvariae; PTH 10 ng/ml): 30.5 ± 2.4%

B2: Lymphotoxin: bone resorbing factor (protein, UniProt P01374 35-205, looked up)
Lymphotoxin-alpha: LPGVGLTPSAAQTARQHPKMHLAHSTLKPAAHLIGDPSKQNSLLWRANTDRAFLQDGFSLSNNSLLVPTSGIYFVYSQVVFSGKAYSPKATSSPLYLAHEVQLFSSQYPFHVPLLSSQKMVYPGLQEPWLHSMYHGAAFQLTQGDQLSTHTDGIPHLVLSPSTVFFGAFAL
45Ca release, Factor alone (Table II) (neonatal mouse calvariae; 1,25D3 10^−10M): 35.0% and 42.8%
